Like-named read-outs stand apart in the source and are kept apart here.
Experiments:
[1] = biological target: T1, 5HT1A receptor (Rattus norvegicus, UniProt P19327); assay: [3H]DPAT Binding to Serotonin Receptors of 5HT1A Type; parameters: species or system rat (male Wistar, hippocampus); settings: [3H]DPAT 0.5 nM, rat hippocampal membranes
T1 construct: Hippocampi are removed, weighed and homogenized in 20 volumes of 0.05 M Tris buffer; from tissue; host or cells: rat hippocampus membranes (male Wistar)
T1 sequence (P19327 1-422): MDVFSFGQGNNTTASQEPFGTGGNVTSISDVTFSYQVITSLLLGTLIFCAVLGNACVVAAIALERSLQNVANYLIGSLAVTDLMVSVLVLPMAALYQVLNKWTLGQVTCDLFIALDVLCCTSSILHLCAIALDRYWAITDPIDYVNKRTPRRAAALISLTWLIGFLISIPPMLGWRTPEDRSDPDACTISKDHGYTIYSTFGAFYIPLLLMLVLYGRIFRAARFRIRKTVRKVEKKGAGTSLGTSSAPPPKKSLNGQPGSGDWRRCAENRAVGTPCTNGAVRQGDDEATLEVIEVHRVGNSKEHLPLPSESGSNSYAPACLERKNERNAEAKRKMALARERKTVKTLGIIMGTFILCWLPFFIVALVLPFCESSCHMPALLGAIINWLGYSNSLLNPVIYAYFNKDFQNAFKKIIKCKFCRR
Procedure: The purpose of this assay is to determine the affinity of test compounds for the 5HT1A receptor in the brain.
Serotonin creatinine sulfate. 0.5 mM stock solution is made up in 0.01 N HCl and 20 μl added to 3 tubes for determination of nonspecific binding (final concentration=10 μM).
Test Compounds. For most assays, a 1 mM stock solution is made up in a suitable solvent and serially diluted, such that the final concentration in the assay ranges from 2×10^-5 to 2×10^-8 M. Seven concentrations are used for each assay.
Male Wistar rats are sacrificed by decapitation. Hippocampi are removed, weighed and homogenized in 20 volumes of 0.05 M Tris buffer, pH 7.7. The homogenate is centrifuged at 48,000 g for 10 minutes and the supernatant is discarded. […]
Tubes are incubated for 15 minutes at 25° C. […] The filters are then placed into scintillation vials with 10 ml of Liquiscint scintillation cocktail and counted.
Specific binding is defined as the difference between total binding and binding in the presence of 10 μM 5HT. IC50 values are calculated from the percent specific binding at each drug concentration. […]
Tubes are incubated for 15 minutes at 25° C. […] The filters are then placed into scintilltion vials with 10 ml of Liquiscint scintillation cocktail and counted. […] IC50 values are calculated from the percent specific binding at each drug concentration.

[2] = tested on: serotonin uptake, rat whole brain synaptosomes; assay: Inhibition of [3H]-Serotonin Uptake in Rat Whole Brain Synaptosomes; assay type: biochemical, rat (male Wistar); settings: [3H]-5HT 50 nM, read-out: C: Inhibition of serotonin uptake, IC50
Procedure: (C) Inhibition of [^3 H]-Serotonin Uptake in Rat Whole Brain Synaptosomes
(§1) A. Animals: Male CR Wistar Rats (100-125 g).
The final desired concentration of ^3 H-5HT in the assay is 50 nM. The dilution factor is 0.8.
5. For most assays, a 1 mM solution of the test compound is made up in suitable solvent and serially diluted such that the final concentration in the assay ranges from 2×10^-8 to 2×10^-5 M. Seven concentrations are used for each assay.
(§2) Male Wistar rats are decapitated and the brain rapidly removed. Whole brain minus cerebella is weighed and homogenized in 9 volumes of ice-cold 0.32 M sucrose using a Potter-Elvejhem homogenizer. Homogenization should be done with 4-5 up and down strokes at medium speeds to minimize synaptosome lysis. The homogenate is centrifuged at 1000 g for 10 min. at 0-4° C. The supernatant (S1) is decanted and is used for uptake experiments.
(§3) Tubes are incubated at 37° C. under a 95% O2 /5% CO2 atmosphere for 5 minutes. For each assay, 3 tubes are incubated with 20 μl of vehicle at 0° C. in an ice bath. After incubation all tubes are immediately centrifuged at 4000 g for 10 minutes. The supernatant fluid is aspirated and the pellets dissolved by adding 1 ml of solubilizer (Tritor. X-100+50% EtOH, 1:4 v/v). The tubes are vigorously vortexed, decanted into scintillation vials, and counted in 10 ml of Liquiscint scintillation counting cocktail. Active uptake is the difference between cpm at 37° C. and 0° C. The percent inhibition at each drug concentration is the mean of three determinations. IC50 values are derived from log-probit analysis.

[3] = biological target: T2, 5HT3 receptor (Rattus norvegicus, UniProt P35563); assay: biochemical; assay type: binding, rat (male Wistar, entorhinal cortex)
T2 sequence (P35563 24-483): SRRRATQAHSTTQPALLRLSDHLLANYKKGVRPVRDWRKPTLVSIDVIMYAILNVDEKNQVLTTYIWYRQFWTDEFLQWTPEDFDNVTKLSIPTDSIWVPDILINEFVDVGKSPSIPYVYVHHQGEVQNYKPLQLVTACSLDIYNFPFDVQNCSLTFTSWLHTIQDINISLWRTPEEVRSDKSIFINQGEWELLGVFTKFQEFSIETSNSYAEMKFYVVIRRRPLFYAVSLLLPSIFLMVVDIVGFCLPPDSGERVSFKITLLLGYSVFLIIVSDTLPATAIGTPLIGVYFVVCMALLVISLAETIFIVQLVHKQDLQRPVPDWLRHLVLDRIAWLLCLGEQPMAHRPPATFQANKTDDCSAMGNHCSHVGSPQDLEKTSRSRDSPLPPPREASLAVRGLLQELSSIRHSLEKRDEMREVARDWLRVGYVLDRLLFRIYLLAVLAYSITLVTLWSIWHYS
Procedure: The homogenate is centrifuged at 48,000 g for 15 minutes at 4° C.
The filters are dried and counted in 10 ml of liquid scintillation cocktail.

[4] = tested on: norepinephrine uptake, rat whole brain or hypothalamic synaptosomes; assay: Inhibition of [3H]-Norepinephrine Uptake in Rat Whole Brain or Hypothalamic Synaptosomes; assay type: biochemical, rat (male Wistar); settings: [3H]-NE 50 nM, read-out: E: Inhibition of norepinephrine uptake, IC50
Procedure: (E) Inhibition of [^3 H]-Norepinephrine Uptake in Rat Whole Brain or Hypothalamic Synaptosomes
This assay is used as a biochemical screen for potential antidepressants which block norepinephrine uptake.
A. Animals: Male CR Wistar rats (100-125 g).
The final desired concentration of [^3 H]-NE in the assay is 50 nM. The dilution factor is 0.8.
(§4) 5. For most assays, a 1 mM stock solution of the test compound is made up in a suitable solvent and serially diluted such that the final concentration in the assay ranges from 2×10^-8 to 2×10^-5 M. Seven concentrations are used for each assay.
as §2, with “Either whole” for “Whole”, “cerebella or hypothalamus” for “cerebella”
as §3, with “(Triton” for “(Tritor.”

[5] = tested on: rats (schedule-induced polydipsia); assay: Schedule-Induced Polydipsia in Rats; assay type: in vivo, rat (male Wistar); settings: i.p., daily; rats tested once a week
Source text: Schedule-Induced Polydipsia in Rats
Food deprived rates exposed to a fixed-interval feeding schedule and allowed free access to water develop an excessive drinking behavior known as polydipsia. This schedule-induced polydipsia (SIP) cannot be explained in terms of a physiological deficit due to water deprivation. Furthermore,it offers no benefit or reward to the rat (1). Just as SIP involves the exaggeration of the normal drinking behavior, the compulsive symptoms of obsessive-compulsive disorder (OCD) can be considered an exaggeration of normal human behaviors.
Male Wistar rats (Charles River) weighing 180-220 grams were individually housed and maintained in accordance with the "NIH Guide to Care and Use of Laboratory Animals" (National Institute of Health Care Publications, No. 85-23, revised 1985) with a 12 hour light; 12 hour dark cycle and allowed free access to water. The rats were placed on a restricted diet which maintained 80% of their free feeding body weight. To induce polydipsia, rats were placed in operant chambers housed in sound attenuated boxes where a pellet dispenser automatically dispensed two 45 mg (Noyes) pellets on a fixed-interval 60 second (FI-60 sec.) schedule over a 150 minute test session. Water was available at all times in the operant chambers. After four weeks (Monday through Friday) of exposure to the FI-60 sec. feeding schedule, approximately 80% of the rats met a pre-determined criterion for water consumption (greater than 60 mls of water per session) and were considered polydipsic. Rats (N=8) were administered, intraperitoneally (IP), vehicle or the appropriate compound daily. Once dosing commenced, the rats were tested in the operant chambers once a week to assess SIP.
Compounds were either dissolved or suspended in distilled water plus a drop of Tween 80 and injected IP in a dosage volume of 1 ml/kg. The final volume was prepared to account for salt content and the dosage was expressed as 100% base.

[6] = tested on: dopamine uptake, rat striatal synaptosomes; assay: Inhibition of 3H-Dopamine Uptake in Rat Striatal Synaptosomes; assay type: biochemical, rat (male Wistar); settings: 3H-DA 50 nM, read-out: D: Inhibition of dopamine uptake, IC50
Procedure: (D) Inhibition of ^3 H-Dopamine Uptake in Rat Striatal Synaptosomes
This assay is used to show differential drug effects on dopamine uptake versus norepinephrine uptake and to identify therapeutic agents for diseases where the potentiation of dopaminergic activity may be helpful (e.g. Parkinson's Disease).
as §1
The final desired concentration of ^3 H-DA in the assay is 50 nM. The dilution factor is 0.9. Therefore, the KHBB is made up to contain 55.5 nM [^3 H]-5DA.
as §4, with “assay. Higher or lower concentrations may be used depending on the potency of the compound.” for “assay.”
as §2, with “Corpora striata are rapidly removed,” for “Whole brain minus cerebella is”
as §3, with “(Triton” for “(Tritor.”

[7] = tested on: norepinephrine uptake (active transport system); settings: high-affinity, sodium dependent active transport system; literature; read-out: Km (NE uptake); cited from earlier work
[8] = [3H]-GR65630 0.4 nM, rat entorhinal cortex, read-out: B: 5HT3 receptor binding, IC50

## c1ccc2c(Nc3ccncc3)c[nH]c2c1 [3-(4-pyridinylamino)-1H-indole]
[1]
  IC50: 6.4 µM
[2]
  IC50: 14.5 µM
[3]; [8]
  IC50: 5.5 µM
[4]
  IC50: 1000 nM

## CC(C)CN(c1ccncc1)c1csc2cc(C(F)(F)F)ccc12.Cl [3-[(2-Methylpropyl)(4-pyridinylamino)]-6-trifluoromethylbenzo[b]thiophene hydrochloride]
[5]
  inhibition of SIP (schedule-induced polydipsia), active dose: Active at 15

## CC(C)CN(c1ccncc1)c1csc2cc(Cl)ccc12.Cl [6-Chloro3-[(2-methylpropyl)(4-pyridinyl)amino]benzo[b]thiophen hydrochloride]
[5]
  inhibition of SIP (schedule-induced polydipsia), active dose: Active at 15

## CCCN(c1ccncc1)c1csc2cc(Cl)ccc12.Cl [6-Chloro-3-(propyl-4-pyridinylamino)benzo[b]thiophene hydrochloride]
[6]
  IC50: 560 nM
[2]
  IC50: 0.06 µM
[5]
  inhibition of SIP (schedule-induced polydipsia), active dose: Active at 30 and 15
[3]; [8]
  IC50: 2.6 µM
[4]
  IC50: 210 nM

## CN(C)CCCN1c2ccccc2CCc2ccc(Cl)cc21 [Clomipramine, reference compound]
[5]
  inhibition of SIP (schedule-induced polydipsia), active dose: Active at 5

## CNCCC(Oc1ccc(C(F)(F)F)cc1)c1ccccc1 (stereo not drawn) [Fluoxetine, reference compound]
[5]
  inhibition of SIP (schedule-induced polydipsia), active dose: Active at 5

## CN1[C@@H]2CC[C@H]1C[C@@H](OC(=O)c1cc(Cl)cc(Cl)c1)C2 [MDL 72222, reference compound]
[3]
  IC50: 0.53 µM

## NC[C@H](O)c1ccc(O)c(O)c1 [norepinephrine]
[7]
  Km: 0.1 to 1 µM

Source: patent US6022880A, “Substituted pyridylamino indoles” (Hoechst Marion Roussel, Inc., priority 1997, dated 2000)
